These results are taken from US7745575B1 (Cellpep Pharma Inc., priority 2004, dated 2010).

Each structure is given as a SMILES string. Bridge positions count the residues as written; N and C are the ends. Peptide text beside a SMILES is read from it.

As a reminder, the LD50 is the dose at which mortality reaches 50%.

This data set is described as follows: toxicity in vivo, LD50 after intracerebroventricular injection. Conditions: mouse, icv or intrathecal, 20 g C57/BL6 mice. How it is done: Groups of six to eight mice per dose were injected with 5 μl peptide solution containing 0.1% (w/v) bovine serum albumin and 0.9% (w/v) NaCl. The LD50 values are set out in Table 5.
With `CC[C@H](C)[C@@H]1NC(=O)[C@H](CCCCN)NC(=O)[C@@H](NC(=O)[C@H](CCCCN)NC(=O)[C@@H](NC(=O)[C@H](CC(N)=O)NC(=O)[C@@H](NC(=O)[C@@H](NC(=O)[C@@H](NC(=O)CN)C(C)C)[C@@H](C)CC)[C@@H](C)CC)C(C)C)CSSC[C@@H]2NC(=O)[C@H](CCCCN)NC(=O)CNC(=O)[C@H](Cc3ccccc3)NC(=O)[C@H](CCCNC(=N)N)NC(=O)[C@H](CCSC)NC(=O)CNC(=O)[C@H](C)NC(=O)[C@H](CC(=O)O)NC(=O)[C@H](CCCCN)NC(=O)[C@@H]3CSSC[C@@H](C(=O)N[C@H](C(=O)N4CCC[C@H]4C(=O)N[C@@H](CCCCN)C(=O)O)[C@@H](C)O)NC(=O)[C@H](Cc4c[nH]cn4)NC(=O)[C@H](CSSC[C@H](NC(=O)[C@H](CCC(N)=O)NC(=O)[C@H](CCCNC(=N)N)NC(=O)[C@H](CO)NC1=O)C(=O)N[C@@H](CC(C)C)C(=O)N[C@@H](CCCCN)C(=O)N1CCC[C@H]1C(=O)N3)NC(=O)[C@H](CCCCN)NC(=O)[C@H](CCCNC(=N)N)NC(=O)[C@H](CC(N)=O)NC(=O)[C@H](CCSC)NC2=O`, the LD50 was found to be 5 µg/kg. Under `CC[C@H](C)[C@@H]1NC(=O)[C@H](CCCCN)NC(=O)[C@@H](NC(=O)[C@H](CCCCN)NC(=O)[C@@H](NC(=O)[C@H](CC(N)=O)NC(=O)[C@@H](NC(=O)[C@@H](NC(=O)[C@@H](NC(=O)CN)C(C)C)[C@@H](C)CC)[C@@H](C)CC)C(C)C)CSSC[C@@H]2NC(=O)[C@H](CCCCN)NC(=O)CNC(=O)[C@H](Cc3ccccc3)NC(=O)[C@H](CCCNC(=N)N)NC(=O)[C@H](CCSC)NC(=O)CNC(=O)[C@H](C)NC(=O)[C@H](CC(=O)O)NC(=O)[C@H](CCCCN)NC(=O)[C@@H]3CSSC[C@@H](C(=O)N[C@H](C(=O)N4CCC[C@H]4C(=O)N[C@@H](CCCCN)C(=O)O)[C@@H](C)O)NC(=O)[C@H](Cc4c[nH]cn4)NC(=O)[C@H](CSSC[C@H](NC(=O)[C@H](CCC(N)=O)NC(=O)[C@H](CCCNC(=N)N)NC(=O)[C@H](CO)NC1=O)C(=O)N[C@@H](CC(C)C)C(=O)N[C@@H](CCC(=O)O)C(=O)N1CCC[C@H]1C(=O)N3)NC(=O)[C@H](CCCCN)NC(=O)CNC(=O)[C@H](CC(N)=O)NC(=O)[C@H](CCSC)NC2=O` [[D^20]-OsK1] (H-GVIINVKCKISRQCLEPCKDAGMRFGKCMNGKCHCTPK-OH; disulfide 8-28, 14-33, 18-35) stands 4.5 µg/kg.

In turn, `CC[C@H](C)[C@@H]1NC(=O)[C@H](CCCCN)NC(=O)[C@@H](N)CSSC[C@@H]2NC(=O)[C@H](CCCCN)NC(=O)CNC(=O)[C@H](Cc3ccccc3)NC(=O)[C@H](CCCNC(=N)N)NC(=O)[C@H](CCSC)NC(=O)CNC(=O)[C@H](C)NC(=O)[C@H](CC(=O)O)NC(=O)[C@H](CCCCN)NC(=O)[C@@H]3CSSC[C@@H](C(=O)N[C@H](C(=O)N4CCC[C@H]4C(=O)N[C@@H](CCCCN)C(=O)O)[C@@H](C)O)NC(=O)[C@H](Cc4c[nH]cn4)NC(=O)[C@H](CSSC[C@H](NC(=O)[C@H](CCC(N)=O)NC(=O)[C@H](CCCNC(=N)N)NC(=O)[C@H](CO)NC1=O)C(=O)N[C@@H](CC(C)C)C(=O)N[C@@H](CCCCN)C(=O)N1CCC[C@H]1C(=O)N3)NC(=O)[C@H](CCCCN)NC(=O)CNC(=O)[C@H](CC(N)=O)NC(=O)[C@H](CCSC)NC2=O` (H-CKISRQCLKPCKDAGMRFGKCMNGKCHCTPK-OH; disulfide 1-21, 7-26, 11-28) showed an LD50 of 15 µg/kg. `CC[C@H](C)[C@@H]1NC(=O)[C@H](CCCCN)NC(=O)[C@@H](NC(=O)[C@H](CCCCN)NC(=O)[C@@H](NC(=O)[C@H](CC(N)=O)NC(=O)[C@@H](NC(=O)[C@@H](NC(=O)[C@@H](N)C(C)C)[C@@H](C)CC)[C@@H](C)CC)C(C)C)CSSC[C@@H]2NC(=O)[C@H](CCCCN)NC(=O)CNC(=O)[C@H](Cc3ccccc3)NC(=O)[C@H](CCCNC(=N)N)NC(=O)[C@H](CCSC)NC(=O)CNC(=O)[C@H](C)NC(=O)[C@H](CCCCN)NC(=O)[C@H](CCCCN)NC(=O)[C@@H]3CSSC[C@@H](C(=O)N[C@H](C(=O)N4CCC[C@H]4C(=O)N[C@@H](CCCCN)C(N)=O)[C@@H](C)O)NC(=O)[C@H](Cc4c[nH]cn4)NC(=O)[C@H](CSSC[C@H](NC(=O)[C@H](CCC(N)=O)NC(=O)[C@H](CCCNC(=N)N)NC(=O)[C@H](CO)NC1=O)C(=O)N[C@@H](CC(C)C)C(=O)N[C@@H](CCC(=O)O)C(=O)N1CCC[C@H]1C(=O)N3)NC(=O)[C@H](CCCCN)NC(=O)CNC(=O)[C@H](CC(N)=O)NC(=O)[C@H](CCSC)NC2=O` [[Δ^1]-OsK1-NH2] (H-VIINVKCKISRQCLEPCKKAGMRFGKCMNGKCHCTPK-NH2; disulfide 7-27, 13-32, 17-34) had a median lethal dose (LD50) of 7 µg/kg.

In the case of `CC[C@H](C)[C@@H]1NC(=O)[C@H](CCCCN)NC(=O)[C@@H](NC(=O)[C@H](CCCCN)NC(=O)[C@@H](NC(=O)[C@H](CC(N)=O)NC(=O)[C@@H](NC(=O)[C@@H](NC(=O)[C@@H](N)C(C)C)[C@@H](C)CC)[C@@H](C)CC)C(C)C)CSSC[C@@H]2NC(=O)[C@H](CCCCN)NC(=O)CNC(=O)[C@H](Cc3ccccc3)NC(=O)[C@H](CCCNC(=N)N)NC(=O)[C@H](CCSC)NC(=O)CNC(=O)[C@H](C)NC(=O)[C@H](CC(=O)O)NC(=O)[C@H](CCCCN)NC(=O)[C@@H]3CSSC[C@@H](C(=O)N[C@H](C(=O)N4CCC[C@H]4C(=O)N[C@@H](CCCCN)C(N)=O)[C@@H](C)O)NC(=O)[C@H](Cc4c[nH]cn4)NC(=O)[C@H](CSSC[C@H](NC(=O)[C@H](CCC(N)=O)NC(=O)[C@H](CCCNC(=N)N)NC(=O)[C@H](CO)NC1=O)C(=O)N[C@@H](CC(C)C)C(=O)N[C@@H](CCCCN)C(=O)N1CCC[C@H]1C(=O)N3)NC(=O)[C@H](CCCCN)NC(=O)CNC(=O)[C@H](CC(N)=O)NC(=O)[C@H](CCSC)NC2=O` (H-VIINVKCKISRQCLKPCKDAGMRFGKCMNGKCHCTPK-NH2; disulfide 7-27, 13-32, 17-34), the LD50 was found to be 4.5 µg/kg.

For the molecule `CC[C@H](C)[C@@H]1NC(=O)[C@H](CCCCN)NC(=O)[C@@H](NC(=O)[C@H](CCCCN)NC(=O)[C@@H](NC(=O)[C@H](CC(N)=O)NC(=O)[C@@H](NC(=O)[C@@H](NC(=O)[C@@H](N)C(C)C)[C@@H](C)CC)[C@@H](C)CC)C(C)C)CSSC[C@@H]2NC(=O)[C@H](CCCCN)NC(=O)CNC(=O)[C@H](Cc3ccccc3)NC(=O)[C@H](CCCNC(=N)N)NC(=O)[C@H](CCSC)NC(=O)CNC(=O)[C@H](C)NC(=O)[C@H](CC(=O)O)NC(=O)[C@H](CCCCN)NC(=O)[C@@H]3CSSC[C@@H](C(=O)N[C@H](C(=O)N4CCC[C@H]4C(=O)N[C@@H](CCCCN)C(=O)O)[C@@H](C)O)NC(=O)[C@H](Cc4c[nH]cn4)NC(=O)[C@H](CSSC[C@H](NC(=O)[C@H](CCC(N)=O)NC(=O)[C@H](CCCNC(=N)N)NC(=O)[C@H](CO)NC1=O)C(=O)N[C@@H](CC(C)C)C(=O)N[C@@H](CCCCN)C(=O)N1CCC[C@H]1C(=O)N3)NC(=O)[C@H](CCCCN)NC(=O)CNC(=O)[C@H](CC(N)=O)NC(=O)[C@H](CCSC)NC2=O` (H-VIINVKCKISRQCLKPCKDAGMRFGKCMNGKCHCTPK-OH; disulfide 7-27, 13-32, 17-34), the LD50 was 3 µg/kg.
